# Assay results as given in patent publication US20240358829A1, “Lymphocyte Population and Methods for Producing Same” (AVM Biotechnology, LLC, priority 2021, published 2024).
# Entries after “also recorded” stand apart in the source; their conditions may differ. Read-outs that look alike come from different tables or passages of the source.
# How the values were obtained:
# [1] = test system: AVM-NKT cells (CD45 dim, CD56 very bright); assay: Flow cytometry of human subjects treated with acute high doses of dexamethasone (Example 7); type: in vivo; conditions: prostate cancer patient, 6 mg/kg (fourth infusion)
# [2] = test system: CD56+γδTCR+ NKT-like cells
# Procedure: For characterisation of the induced/mobilized population of NKT-like cells (AVM-NKT) in humans, whole blood from human subjects was drawn in K2 EDTA Vacutainer tube (367862, BD Biosciences, NJ) and shipped to AVM Biotechnology at room temperature. 100 μl of whole blood was stained with the following antibodies: CD45 AF700 (2D1), CD16 APC (3G8), INKT PECy7 (6B11), CD8 PE (SK1), CD14 FITC (M5E2), CD56 BV650 (5.1H11), γδTCR BV510 (B1), CD19 BV421 (HIB19), NKp44 APC (P44-8) (all from Biolegend, San Diego, CA) and CD3 APCVio770 (BW264/56), (Miltenyi Biotec, San Jose, CA), 7-AAD, (Biolegend, San Diego CA) was included to distinguish the live and dead cells. Antibody staining was performed for 15 minutes at room temperature. Erythrocytes present in the sample were lysed using BD FACS lyse (BD Biosciences, San Diego CA) for 10 minutes at room temperature, then washed and resuspended in 300 μl 1×DPBS CMF. Healthy patient blood from BloodWorks (Seattle, WA), unstained and fluorescence minus one (FMO) were included as controls. 250 μl sample was analyzed on MACSQuant 16 (Serial #40150, Miltenyi Biotec, San Jose, CA) flow cytometer. Data was analyzed using Kaluza 2.1 (Beckman Coulter Lifesciences, Indianapolis, IN) software for different immune population. Data obtained from flow cytometry analyzed by Kaluza were combined to determine different cell populations gated from Live CD45 Lymphocytes: CD3+ T cell, CD8+ cytotoxic T cell, CD3+CD56+ (NKT cells) CD3-CD56+, CD3-CD56bright (NK cells) and CD3-CD19+ (B cells), CD3+γδTCR+ cells, CD3+γδTCR bright cells, CD3+iTCR+ cells, Live WBC CD3-CD16bright granulocytes, Live WBC CD3-CD14+ monocytes. Numbers were reported as % WBC and as cells per μl.
# A20 B cell lymphoma = test system: A20 B cell lymphoma
# Procedure: FIG. 10B. […] Mice were inoculated with A20 lymphoma 2×10^6 cells in 100 μL of PBS mixed with 100 μL of chilled Matrigel into their flank. Three, 24 and 48 hours later mice were euthanized and tumors, blood, bone marrow and thymus were taken and made into single cell suspensions for flow cytometry detection of live A20 cells.
# [3] = Compassionate use patients treated with AVM0703; type: in vivo, human
# [4] = test system: peripheral blood mononuclear cells or single cell splenocytes; assay: In vitro apoptosis of mononuclear cells or splenocytes incubated with AVM0703; type: cell-based, mouse; conditions: concentrations equivalent to in vivo peak blood concentrations of acute high dose, out to 72 hours
# R/R NHL = assay: AVM0703 R/R NHL clinical trial, clinical and PET/CT response, survival; type: in vivo, human
# [5] = AVM0703 R/R NHL clinical trial, blood counts; type: in vivo, human
# [6] = test system: AVM-NKT cells (CD3highCD49b+); type: in vivo, mouse
# Source text: Mice were anesthetized with isoflurane gas.
# [7] = patient 108-001, after the second 9 mg/kg infusion
smiles,measurement,setting,value
"C[C@@H]1C[C@H]2[C@@H]3CCC4=CC(=O)C=C[C@]4(C)[C@@]3(F)[C@@H](O)C[C@]2(C)[C@@]1(O)C(=O)COP(=O)(O)O [AVM0703, dexamethasone sodium phosphate]",novel CD45dim CD56 very bright cell population in blood,"[1]; 1 hour after infusion, 6 mg/kg",observed; also recorded: evident
same,novel CD45dim CD56 very bright cell population in blood,[1]; 3 hours after infusion,no longer observed
same,% of the CD56+ cells positive for both γδTCR and iTCR,"[2]; lysed whole blood, FIG. 14",51%
same,"CD8 dim/-, % CD56+γδTCR+",[2]; representative subject,~98%
same,"CD14+, % CD56+γδTCR+",[2]; representative subject,67%
same,"CD16+, % CD56+γδTCR+",[2]; representative subject,86%
same,"CD19+, % CD56+γδTCR+",[2]; representative subject,85%
same,"NKp44 positive, % CD56+γδTCR+",[2]; representative subject,~97%
same,"iNKT positive, % CD56+γδTCR+",[2]; representative subject,~96%
same,"CD56+γδTCR+ cells, % of WBC","[2]; whole blood, within 30 minutes post infusion",1.64%
same,"CD16 and NKp46 expression, % of the AVM_NKT cells","[2]; γδTCR+iTCR+ quadrant, FIG. 14",~100%
same,time of maximal ablation of A20 lymphoma implanted in the flank,A20 B cell lymphoma; 18 mg/kg HED,~3 h
same,"Presence of AVM-NKT cells, 48 hrs blood",A20 B cell lymphoma; A20 model,negative
same,growth of the A20 B cell lymphoma,"A20 B cell lymphoma; HED 18.1 mg/kg PO, repeat dosing, vs placebo",significantly delays growth
same,location of AVM-NKT cells,A20 B cell lymphoma; male tumor bearing Balb/c mice,in tumors
same,tumor necrosis,"A20 B cell lymphoma; study A20-3, dose response curve, 18&26 mg/kg, doses on days 10, 17, 25, 32, 39",18&26 mg/kg 50-80% necrotic
same,time to immune infiltrate (skin turning red over the tumor area),"[3]; compassionate use patient with CNS squamous cell carcinoma, after starting an 18 mg/kg infusion",≤ 30 min
same,neutrophil production,[3]; compassionate use patient without neutrophils for 6 years,began making healthy active neutrophils
same,apoptosis,[4],no apoptosis was observed
same,Survival from 1st AVM0703 (months),"R/R NHL; patient 101-001, B-ALL, 6 mg/kg X1",4.8 months
same,Survival from 1st AVM0703 (months),"R/R NHL; patient 103-002, PTCL, 6 mg/kg X1",7 months
same,Survival from 1st AVM0703 (months),"R/R NHL; patient 103-004, T-ALL, 6 mg/kg X1",2.7 months
same,Survival from 1st AVM0703 (months),"R/R NHL; patient 103-005, MCL, 9 mg/kg X1",8.3 months
same,Survival from 1st AVM0703 (months),"R/R NHL; patient 103-006, DLBCL, 9 mg/kg X1, ongoing",>12.6 months
same,Survival from 1st AVM0703 (months),"R/R NHL; patient 103-007, MCL, 12 mg/kg X1, ongoing",>7.6 months
same,Survival from 1st AVM0703 (months),"R/R NHL; patient 103-008, DLBCL, 18 mg/kg X1, ongoing",>2.1 months
same,clinical response,"R/R NHL; patient 108-001, 9 mg/kg, day 3 after 1st infusion",restoration of vision
same,Survival from 1st AVM0703 (months),"R/R NHL; patient 108-001, CNS B-ALL, 9 mg/kg X3, ongoing",>11.8 months
same,CNS solid tumor,R/R NHL; [7],not evident
same,reduction of CSF blasts,R/R NHL; [7],40%
same,response to the third infusion,"R/R NHL; patient 108-001, third 9 mg/kg infusion",loss of response
same,Survival from 1st AVM0703 (months),"R/R NHL; patient 108-002, PTCL, 18 mg/kg X1, ongoing",>10.3 months
same,central Lugano 28 Day,"R/R NHL; patient 108-002, PTCL, 18 mg/kg, monotherapy",PR with SD
same,Survival from 1st AVM0703 (months),"R/R NHL; patient 108-003, AITCL, 12 mg/kg X2, ongoing",>10.2 months
same,"objective beneficial response (PET/CT, clinical chemistries, CBCs or clinical symptoms)","R/R NHL; patient 108-004, 12 mg/kg",did not have any objective clinical beneficial response; also recorded: did not have an objective beneficial response; also recorded: no response to treatment
same,Survival from 1st AVM0703 (months),"R/R NHL; patient 108-004, DLBCL, 12 mg/kg X1, ongoing",>8 months
same,"WBCs, lymphocytes, platelets and RBCs","[5]; AVM0703-001 dose-escalation phase, doses between 6 mg/kg and 18 mg/kg",not depleted
same,hemoglobin,"[5]; R/R MCL patient, after 9 mg/kg infusion",clinically significantly increased
same,Absolute lymphocyte counts (lymphocytosis),"[5]; patient 103-007 (mantle cell lymphoma), 12 mg/kg infusion, between day 4 and 7, 12 mg/kg",reduced to normal lymphocyte levels; also recorded: reduced lymphocytes
same,"monocytes, platelets, hematocrit and RBCs","[5]; patient 103-007, 12 mg/kg",spares normal blood cells; also recorded: not reduced
same,neutrophils,[5]; patients in the AVM0703-001 trial in R/R NHL,some evidence of increased neutrophils
same,location of induced AVM-NKT cells,"[6]; naïve male Balb/c mice, 48 hours after doses about 29 mg/kg and higher (given as DP)",Induced in Bone Marrow and Fat Tissue
same,location of induced AVM-NKT cells,[6]; naïve male C57Bl/6 mice,in blood
same,"Presence of AVM-NKT cells, 48 hrs spleen",[6]; naïve mice,positive
